Experimental data from PubChem BioAssay AID1963981 (Molecular Pharmacology Branch, DTP, NCI, 2024).

Tested on: 354836-022-R-J1-PDC multicell spheroid viability
Assay: Anticancer human tumor 354836-022-R-J1-PDC patient-derived head and neck squamous cell carcinoma cell line growth inhibition [PI3K]
Details: for viability, T/C: stronger effect = lower value
Procedure, shortened: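 Complex 3D spheroids (cancer cells + endothelial HUVEC + mesenchymal stem cells); drug pairs of targeted agent x inavolisib/alpelisib/duvelisib/copanlisib; half-log series from ~Cmax, max 10 microM if Cmax unknown; endpoint viability.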

[1] = curve of first compound, second compound 0.00316 µM
[2] = curve of first compound, second compound 0.01 µM
[3] = curve of first compound, second compound 0.0316 µM
[4] = curve of first compound, second compound 0.1 µM
[5] = curve of first compound, second compound 0.316 µM
[6] = curve of first compound, second compound 1 µM
[7] = second compound 0.00316 µM, first compound 0.0316 µM
[8] = second compound 0.00316 µM, first compound 0.1 µM
[9] = second compound 0.00316 µM, first compound 0.316 µM
[10] = second compound 0.00316 µM, first compound 1 µM
[11] = second compound 0.01 µM, first compound 0.0316 µM
[12] = second compound 0.01 µM, first compound 0.1 µM
[13] = second compound 0.01 µM, first compound 0.316 µM
[14] = second compound 0.01 µM, first compound 1 µM
[15] = second compound 0.0316 µM, first compound 0.0316 µM
[16] = second compound 0.0316 µM, first compound 0.1 µM
[17] = second compound 0.0316 µM, first compound 0.316 µM
[18] = second compound 0.0316 µM, first compound 1 µM
[19] = second compound 0.0316 µM, first compound 3.16 µM
[20] = second compound 0.0316 µM, first compound 10 µM
[21] = second compound 0.1 µM, first compound 0.0316 µM
[22] = second compound 0.1 µM, first compound 0.1 µM
[23] = second compound 0.1 µM, first compound 0.316 µM
[24] = second compound 0.1 µM, first compound 1 µM
[25] = second compound 0.1 µM, first compound 3.16 µM
[26] = second compound 0.1 µM, first compound 10 µM
[27] = second compound 0.316 µM, first compound 0.0316 µM
[28] = second compound 0.316 µM, first compound 0.1 µM
[29] = second compound 0.316 µM, first compound 0.316 µM
[30] = second compound 0.316 µM, first compound 1 µM
[31] = second compound 0.316 µM, first compound 3.16 µM
[32] = second compound 0.316 µM, first compound 10 µM
[33] = second compound 1 µM, first compound 0.0316 µM
[34] = second compound 1 µM, first compound 0.1 µM
[35] = second compound 1 µM, first compound 0.316 µM
[36] = second compound 1 µM, first compound 1 µM
[37] = second compound 1 µM, first compound 3.16 µM
[38] = second compound 1 µM, first compound 10 µM
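Also: spheroids exposed to agents for seven days before the viability read.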

Structure (SMILES): C#Cc1c(F)ccc2cc(O)cc(-c3ncc4c(N5CC6CCC(C5)N6)nc(OCC56CCCN5CC(F)C6)nc4c3F)c12 (stereo not given) + CC(Nc1ccc2c(c1)OCCn1cc(N3C(=O)OCC3C(F)F)nc1-2)C(N)=O
- IC50 [1]: > 10 µM
- IC50 [2]: > 10 µM
- IC50 [3]: > 10 µM
- IC50 [4]: > 10 µM
- IC50 [5]: > 10 µM
- IC50 [6]: > 10 µM
- viability, T/C [7]: 106%
- viability, T/C [8]: 78%
- viability, T/C [9]: 96.6%
- viability, T/C [10]: 92.7%
- viability, T/C (second compound 0.00316 µM, first compound 3.16 µM): 97.4%
- viability, T/C (second compound 0.00316 µM, first compound 10 µM): 99.1%
- viability, T/C [11]: 97.5%
- viability, T/C [12]: 98.9%
- viability, T/C [13]: 93.4%
- viability, T/C [14]: 96.4%
- viability, T/C (second compound 0.01 µM, first compound 3.16 µM): 103%
- viability, T/C (second compound 0.01 µM, first compound 10 µM): 99%
- viability, T/C [15]: 87.3%
- viability, T/C [16]: 108%
- viability, T/C [17]: 80.9%
- viability, T/C [18]: 95.5%
- viability, T/C [19]: 97.8%
- viability, T/C [20]: 92.9%
- viability, T/C [21]: 78.7%
- viability, T/C [22]: 103%
- viability, T/C [23]: 78.1%
- viability, T/C [24]: 92.4%
- viability, T/C [25]: 88.8%
- viability, T/C [26]: 71.8%
- viability, T/C [27]: 70.8%
- viability, T/C [28]: 89.1%
- viability, T/C [29]: 79.5%
- viability, T/C [30]: 79.7%
- viability, T/C [31]: 83.5%
- viability, T/C [32]: 61.9%
- viability, T/C [33]: 70.2%
- viability, T/C [34]: 56.8%
- viability, T/C [35]: 55.9%
- viability, T/C [36]: 59.7%
- viability, T/C [37]: 57.2%
- viability, T/C [38]: 54%

Structure (SMILES): C=CC(=O)N1CCN(c2nc(=O)n(-c3c(C)ccnc3C(C)C)c3nc(-c4c(O)cccc4F)c(F)cc23)C(C)C1 (stereo not given) + Cc1nc(NC(=O)N2CCCC2C(N)=O)sc1-c1ccnc(C(C)(C)C(F)(F)F)c1
- IC50 [3]: > 10 µM
- IC50 [4]: > 10 µM
- IC50 [5]: > 10 µM
- IC50 [6]: > 10 µM
- IC50 (curve of first compound, second compound 3.16 µM): > 10 µM
- IC50 (curve of first compound, second compound 10 µM): < 0.0316 µM
- viability, T/C [15]: 100%
- viability, T/C [16]: 90.5%
- viability, T/C [17]: 96.2%
- viability, T/C [18]: 87.7%
- viability, T/C [19]: 113%
- viability, T/C [20]: 92.5%
- viability, T/C [21]: 118%
- viability, T/C [22]: 100%
- viability, T/C [23]: 97.2%
- viability, T/C [24]: 96.7%
- viability, T/C [25]: 110%
- viability, T/C [26]: 105%
- viability, T/C [27]: 90.5%
- viability, T/C [28]: 99.2%
- viability, T/C [29]: 92.1%
- viability, T/C [30]: 90.6%
- viability, T/C [31]: 105%
- viability, T/C [32]: 97.6%
- viability, T/C [33]: 72.6%
- viability, T/C [34]: 77.8%
- viability, T/C [35]: 84.1%
- viability, T/C [36]: 105%
- viability, T/C [37]: 88%
- viability, T/C [38]: 89.4%
- viability, T/C (second compound 3.16 µM, first compound 0.0316 µM): 57.8%
- viability, T/C (second compound 3.16 µM, first compound 0.1 µM): 65.8%
- viability, T/C (second compound 3.16 µM, first compound 0.316 µM): 71.8%
- viability, T/C (second compound 3.16 µM, first compound 1 µM): 72.2%
- viability, T/C (second compound 3.16 µM, first compound 3.16 µM): 90.7%
- viability, T/C (second compound 3.16 µM, first compound 10 µM): 60.2%
- viability, T/C (second compound 10 µM, first compound 0.0316 µM): 36.8%
- viability, T/C (second compound 10 µM, first compound 0.1 µM): 36.5%
- viability, T/C (second compound 10 µM, first compound 0.316 µM): 33.7%
- viability, T/C (second compound 10 µM, first compound 1 µM): 46.4%
- viability, T/C (second compound 10 µM, first compound 3.16 µM): 43.8%
- viability, T/C (second compound 10 µM, first compound 10 µM): 29.5%

Structure (SMILES): CC1(C)CCC(Nc2ncc(C(F)(F)F)c(-c3c[nH]c4c(P(C)(C)=O)c(C#N)ccc34)n2)CN1 (stereo not given)
- viability, T/C (compound 0.0316 µM): 21.9% [middle of 4 runs]
- viability, T/C (compound 0.1 µM): 19.9% [middle of 4 runs]
- viability, T/C (compound 0.316 µM): 20.8% [middle of 4 runs]
- viability, T/C (compound 1 µM): 21.9% [middle of 4 runs]
- viability, T/C (compound 3.16 µM): 32% [middle of 4 runs]
- viability, T/C (compound 10 µM): 2.79% [middle of 4 runs]
- IC50 (curve of compound): < 0.0316 µM

Structure (SMILES): CCN1CCN(Cc2ccc(Nc3ncc(F)c(-c4cc(F)c5nc(C)n(C(C)C)c5c4)n3)nc2)CC1 + COc1c(OCCCN2CCOCC2)ccc2c3n(c(=NC(=O)c4cnc(N)nc4)nc12)CCN3
- IC50 [1]: 0.656 µM
- IC50 [2]: 0.642 µM
- IC50 [3]: 0.342 µM
- IC50 [4]: < 0.00316 µM
- IC50 [5]: < 0.00316 µM
- IC50 [6]: < 0.00316 µM
- viability, T/C (second compound 0.00316 µM, first compound 0.00316 µM): 97.2%
- viability, T/C (second compound 0.00316 µM, first compound 0.01 µM): 86.5%
- viability, T/C [7]: 98.3%
- viability, T/C [8]: 99.3%
- viability, T/C [9]: 71.5%
- viability, T/C [10]: 37.6%
- viability, T/C (second compound 0.01 µM, first compound 0.00316 µM): 98%
- viability, T/C (second compound 0.01 µM, first compound 0.01 µM): 101%
- viability, T/C [11]: 96%
- viability, T/C [12]: 81.1%
- viability, T/C [13]: 83.5%
- viability, T/C [14]: 31.7%
- viability, T/C (second compound 0.0316 µM, first compound 0.00316 µM): 78.5%
- viability, T/C (second compound 0.0316 µM, first compound 0.01 µM): 74.4%
- viability, T/C [15]: 72.6%
- viability, T/C [16]: 65.2%
- viability, T/C [17]: 53.5%
- viability, T/C [18]: 20.9%
- viability, T/C (second compound 0.1 µM, first compound 0.00316 µM): 46.6%
- viability, T/C (second compound 0.1 µM, first compound 0.01 µM): 41.8%
- viability, T/C [21]: 46.5%
- viability, T/C [22]: 36.6%
- viability, T/C [23]: 30.4%
- viability, T/C [24]: 6.41%
- viability, T/C (second compound 0.316 µM, first compound 0.00316 µM): 11.8%
- viability, T/C (second compound 0.316 µM, first compound 0.01 µM): 10.4%
- viability, T/C [27]: 12.9%
- viability, T/C [28]: 8.98%
- viability, T/C [29]: 5.99%
- viability, T/C [30]: 2.69%
- viability, T/C (second compound 1 µM, first compound 0.00316 µM): 1.43%
- viability, T/C (second compound 1 µM, first compound 0.01 µM): 1.38%
- viability, T/C [33]: 1.41%
- viability, T/C [34]: 1.78%
- viability, T/C [35]: 1.38%
- viability, T/C [36]: 1.22%

Structure (SMILES): CC(Cn1ccc(-c2ccc(C#N)c(Cl)c2)n1)NC(=O)c1cc(C(C)O)[nH]n1 (stereo not given)
- viability, T/C (compound 0.0316 µM): 108% [middle of 4 runs]
- viability, T/C (compound 0.1 µM): 95.5% [middle of 4 runs]
- viability, T/C (compound 0.316 µM): 112% [middle of 4 runs]
- viability, T/C (compound 1 µM): 93.7% [middle of 4 runs]
- viability, T/C (compound 3.16 µM): 99.2% [middle of 4 runs]
- viability, T/C (compound 10 µM): 77.8% [middle of 4 runs]
- IC50 (curve of compound): > 10 µM
